Structures can show the parent of a compound that is named as a salt.

For the assay, the target named is human recombinant DGK ξ (Homo sapiens (Human), UniProt Q13574). The experiment in a line: Evaluation of DGK ξ inhibitory effect (ADP-Glo Kinase Assay). The format is biochemical. The procedure: Test Example 1: Evaluation of DGK ξ Inhibitory Effect
Sequence of human recombinant DGK ξ (Q13574 whole entry): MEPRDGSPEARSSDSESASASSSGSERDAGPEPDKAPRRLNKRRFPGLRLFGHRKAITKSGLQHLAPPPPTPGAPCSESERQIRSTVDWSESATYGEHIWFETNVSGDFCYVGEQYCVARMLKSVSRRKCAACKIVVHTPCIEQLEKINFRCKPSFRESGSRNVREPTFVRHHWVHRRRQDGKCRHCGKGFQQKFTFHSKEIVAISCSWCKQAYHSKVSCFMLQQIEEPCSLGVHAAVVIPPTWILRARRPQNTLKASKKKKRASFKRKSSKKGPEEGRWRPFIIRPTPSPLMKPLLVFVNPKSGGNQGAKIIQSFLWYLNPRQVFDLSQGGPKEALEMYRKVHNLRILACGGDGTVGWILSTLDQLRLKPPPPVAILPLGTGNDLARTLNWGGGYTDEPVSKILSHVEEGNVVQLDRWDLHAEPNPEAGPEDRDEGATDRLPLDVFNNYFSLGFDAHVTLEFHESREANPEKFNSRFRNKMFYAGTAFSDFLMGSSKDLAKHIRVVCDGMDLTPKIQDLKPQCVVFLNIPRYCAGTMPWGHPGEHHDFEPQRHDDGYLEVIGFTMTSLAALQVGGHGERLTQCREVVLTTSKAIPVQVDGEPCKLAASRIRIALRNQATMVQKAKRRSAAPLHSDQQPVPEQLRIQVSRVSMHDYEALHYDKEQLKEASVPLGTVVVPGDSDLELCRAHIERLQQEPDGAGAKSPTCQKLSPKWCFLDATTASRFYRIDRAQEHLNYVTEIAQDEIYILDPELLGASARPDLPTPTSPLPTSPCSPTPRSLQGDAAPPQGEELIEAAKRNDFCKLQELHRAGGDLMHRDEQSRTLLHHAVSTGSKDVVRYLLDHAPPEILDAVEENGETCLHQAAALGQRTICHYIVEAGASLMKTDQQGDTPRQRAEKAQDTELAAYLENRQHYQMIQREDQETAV
The inhibitory effect of a test compound on human recombinant DGK ξ (Carna Biosciences, Inc., 12-410-20N) was examined by the following method in which detection is performed with ADP-Glo™ Kinase Assay (Promega Corporation).
To a 384-well plate (Greiner Bio-One Co., Ltd.), 3 μL of a […] dissolved in an assay buffer (40 mM Tris-HCl pH 7.5, 10 mM MgCl2, 1 mM dithiothreitol (DTT) and 0.1 mg/mL bovine serum albumin (BSA)) (90 ng/mL) was added, and 3 μL of the test compound diluted with the same assay buffer was added so that an intended final concentration was obtained. The mixture was left standing at room temperature for 15 minutes, 3 μL of a substrate (150 μM 1-oleoyl-2-acetyl-sn-glycerol (Sigma-Aldrich Co. LLC.), 480 μM phosphatidylserine (Avanti Polar Lipids, Inc.) and 150 μM UltraPure-ATP (attached to ADP-Glo)) was then added, and the mixture was left standing at room temperature for 30 minutes to react. Thereafter, 3 μL of an ADP-Glo Reagent was added, and the mixture was left standing at room temperature for 40 minutes to stop the enzyme reaction. Further, 6 μL of a Kinase-Detection Reagent was added, the mixture was left standing at room temperature for 30 minutes, and the luminescence was then measured using ARVO X3 (PerkinElmer, Inc.). The half maximal inhibitory concentration (IC50) was calculated by Sigmoid-Emax model non-linear regression analysis, where the signal value in solvent treatment was set to 0% inhibition and the signal value without addition of the DGK ξ enzyme was set to 100% inhibition. […] In the table, Ex represents the number of each Example described below. Also, in the table, compound C (cpd. C) represents the test compound of the Example 199 described in the international publication WO 2008/054702.
(ADP-Glo turns the ADP formed in a reaction into a luminescent signal.)
`CN(C)C[C@H]1CCCN(c2c(NC(=O)c3csc(-c4ccnnc4)n3)ccc(Oc3ccccc3)c2C(F)(F)F)C1` [Example 54, N-[2-{(3R)-3-[(dimethylamino)methyl]piperidin-1-yl}-4-phenoxy-3-(trifluoromethyl)phenyl]-2-(pyridazin-4-yl)-1,3-thiazole-4-carboxamide dihydrochloride]: the IC50 (as a rule, the concentration needed to halve the response being measured) came out at 17 nM.

As for `NC[C@@H]1CCCN(c2c(NC(=O)c3csc(-c4ccnnc4)n3)ccc(Oc3ccc(F)cc3)c2C(F)(F)F)C1` [Example 41], the IC50 came out at 11 nM.

On to `NC[C@@H]1CCCN(c2c(NC(=O)c3csc(-c4ccnnc4)n3)ccc(Nc3ccccc3)c2C(F)(F)F)C1` [Example 18], for which the IC50 worked out at 19 nM. Next, `NC[C@@H]1CN(c2c(NC(=O)c3csc(-c4ccnnc4)n3)ccc(Oc3ccccc3)c2C(F)(F)F)CCO1` [Example 25]: 42 nM; `CNC[C@@H]1CCCN(c2c(NC(=O)c3csc(-c4ccnnc4)n3)ccc(Oc3ccccc3F)c2C(F)(F)F)C1` [Example 83, N-[4-(2-fluorophenoxy)-2-{(3S)-3-[(methylamino)methyl]piperidin-1-yl}-3-(trifluoromethyl)phenyl]-2-(pyridazin-4-yl)-1,3-thiazole-4-carboxamide mono[(2E)-but-2-enedioate]]: 5 nM; `COCCNC[C@@H]1CCCN(c2c(NC(=O)c3csc(-c4ccnnc4)n3)ccc(Oc3cccc(F)c3)c2C(F)(F)F)C1` [Example 53]: 27 nM. Then `O=C(Nc1ccc(Oc2ccccc2)c(C(F)(F)F)c1N1CCOC2(CCN(C3COC3)CC2)C1)c1csc(-c2ccnnc2)n1` [Example 62, N-{2-[9-(oxetan-3-yl)-1-oxa-4,9-diazaspiro[5.5]undecan-4-yl]-4-phenoxy-3-(trifluoromethyl)phenyl}-2-(pyridazin-4-yl)-1,3-thiazole-4-carboxamide], with 10 nM. Then `NC[C@H]1CN(c2c(NC(=O)c3csc(-c4ccnnc4)n3)ccc(Oc3ccccc3)c2C(F)(F)F)CCO1` [Example 27], with 90 nM. Regarding `CNCC1CCCN(c2c(NC(=O)c3csc(-c4ccnnc4)n3)ccc(Oc3ccccc3)c2C(F)(F)F)C1` (stereo not drawn) [Example 64, N-[2-{3-[(methylamino)methyl]piperidin-1-yl}-4-phenoxy-3-(trifluoromethyl)phenyl]-2-(pyridazin-4-yl)-1,3-thiazole-4-carboxamide], the IC50 came out at 30 nM. Consider `CNC[C@@H]1CCCN(c2c(NC(=O)c3csc(-c4ccnnc4)n3)ccc(Oc3ccccc3)c2C(F)(F)F)C1` [Example 49, N-[2-{(3S)-3-[(methylamino)methyl]piperidin-1-yl}-4-phenoxy-3-(trifluoromethyl)phenyl]-2-(pyridazin-4-yl)-1,3-thiazole-4-carboxamide], for which the IC50 was determined as 10 nM.

`NC[C@@H]1CCCN(c2c(NC(=O)c3csc(-c4ccnnc4)n3)ccc(Oc3ccccc3)c2C2CC2)C1` [Example 67]: the concentration for half-maximal inhibition (IC50) was 12 nM. Then `O=C(Nc1ccc(OC2CCC2)c(F)c1C1=CCN(Cc2cc[nH]n2)CC1)c1csc(-c2ccnnc2)n1` [Example 4], with 50 nM; and `NC[C@@H]1CCCN(c2c(NC(=O)c3csc(-c4ccnnc4)n3)ccc(C(=O)c3ccccc3)c2C(F)(F)F)C1` [Example 70], with 7 nM; and `Cc1c(OC2CC2)ccc(NC(=O)c2csc(-c3ccnnc3)n2)c1N1CCC[C@@H](CN)C1` [Example 71], with 44 nM.

In the case of `NC[C@@H]1CCCN(c2c(NC(=O)c3csc(-c4ccnnc4)n3)ccc(Oc3ccccn3)c2C(F)(F)F)C1` [Example 39], the IC50 turned out to be 7 nM. Then `CN1CCC2(CC1)CN(c1c(NC(=O)c3csc(-c4ccnnc4)n3)ccc(Oc3ccccc3)c1C(F)(F)F)CCO2` [Example 1, N-[2-(9-methyl-1-oxa-4,9-diazaspiro[5.5]undecan-4-yl)-4-phenoxy-3-(trifluoromethyl)phenyl]-2-(pyridazin-4-yl)-1,3-thiazole-4-carboxamide], with 3 nM; and `CN1CCN(c2c(NC(=O)c3csc(-c4ccnnc4)n3)ccc(Oc3ccccc3)c2C(F)(F)F)C[C@@H]1CN` [Example 8], with 9 nM.

Turning to `NC[C@@H]1CCCN(c2c(NC(=O)c3csc(-c4ccnnc4)n3)ccc(-c3ccccc3)c2C(F)(F)F)C1` [Example 28], the IC50 came to 42 nM. Then `NC[C@@H]1CCCN(c2c(NC(=O)c3csc(-c4ccnnc4)n3)ccc(Oc3ccccc3Cl)c2C(F)(F)F)C1` [Example 35], with 2 nM. Next, `CCNC[C@@H]1CCCN(c2c(NC(=O)c3csc(-c4ccnnc4)n3)ccc(Oc3cccc(F)c3)c2C(F)(F)F)C1` [Example 52]: 23 nM. Next, `CNC[C@H]1CN(c2c(NC(=O)c3csc(-c4ccnnc4)n3)ccc(Oc3ccccc3)c2C)CCN1C` [Example 65]: 12 nM. With `NC[C@@H]1CCCN(c2c(NC(=O)c3csc(-c4ccnnc4)n3)ccc(Oc3c(F)cc(F)cc3F)c2C(F)(F)F)C1` [Example 23], the half-maximal inhibitory concentration (IC50) is 10 nM.

As to `CNC[C@H]1CCCN(c2c(NC(=O)c3csc(-c4ccnnc4)n3)ccc(Oc3ccccc3)c2C(F)(F)F)C1` [Example 50], the IC50 was determined as 23 nM. Then `O=C(Nc1ccc(Oc2ccccc2)c(C(F)(F)F)c1N1CCCC2(CCNCC2)C1)c1csc(-c2ccnnc2)n1` [Example 42], with 23 nM; and `NC[C@@H]1CCCN(c2c(NC(=O)c3csc(-c4ccnnc4)n3)cc(F)c(Oc3ccccc3)c2F)C1` [Example 24], with 11 nM.

Consider `CNC[C@@H]1CCCN(c2c(NC(=O)c3csc(-c4ccnnc4)n3)ccc(Oc3ccc(F)cc3)c2C(F)(F)F)C1` [Example 43], for which the concentration for half-maximal inhibition (IC50) was found to be 36 nM. Next, `NC[C@@H]1CCCN(c2c(NC(=O)c3csc(-c4ccnnc4)n3)ccc(Oc3cccc(F)c3)c2C(F)(F)F)C1` [Example 85]: 15 nM; `NCC[C@@H]1CCCN(c2c(NC(=O)c3csc(-c4ccnnc4)n3)ccc(Oc3ccccc3)c2C(F)(F)F)C1` [Example 7]: 110 nM. Next, `Cc1c(Oc2ccccc2)ccc(NC(=O)c2csc(-c3ccnnc3)n2)c1N1CCC[C@@H](CN)C1` [Example 72]: 18 nM; `NC[C@H]1CCCN1c1c(NC(=O)c2csc(-c3ccnnc3)n2)ccc(Oc2ccccc2F)c1C(F)(F)F` [Example 19]: 15 nM; `CNCC[C@H]1CCCN1c1c(NC(=O)c2csc(-c3ccnnc3)n2)ccc(Oc2ccccc2)c1C(F)(F)F` [Example 46]: 40 nM. Take `NC[C@H]1CCCN1c1c(NC(=O)c2csc(-c3ccnnc3)n2)ccc(Oc2ccccc2)c1C(F)(F)F` [Example 87]: the concentration for half-maximal inhibition (IC50) was 20 nM. Next, `O=C(Nc1ccc(Oc2ccccc2)c(C(F)(F)F)c1N1CCOC2(CCNCC2)C1)c1csc(-c2ccnnc2)n1` [Example 12]: 17 nM; `NCC[C@H]1CCCN1c1c(NC(=O)c2csc(-c3ccnnc3)n2)ccc(Oc2ccccc2)c1C(F)(F)F` [Example 45]: 24 nM; `N[C@@H]1CCN2CCN(c3c(NC(=O)c4csc(-c5ccnnc5)n4)ccc(OC4CC4)c3C(F)(F)F)C[C@@H]12` [Example 76]: 6 nM. Then `CN(C)[C@H]1CCN2CCN(c3c(NC(=O)c4csc(-c5ccnnc5)n4)ccc(Oc4ccccc4)c3C(F)(F)F)C[C@H]12` [Example 81], with 152 nM; and `O=C(Nc1ccc(Oc2ccccc2)c(C(F)(F)F)c1C1=CCN(Cc2cc[nH]n2)CC1)c1csc(-c2ccnnc2)n1` [Example 2], with 53 nM. Then `NC[C@H]1CCCN(c2c(NC(=O)c3csc(-c4ccnnc4)n3)ccc(Oc3ccccc3)c2C(F)(F)F)C1` [Example 32], with 31 nM; and `O=C(Nc1cc(F)c(OC2CC2)c(F)c1C1=CCN(Cc2cc[nH]n2)CC1)c1csc(-c2ccnnc2)n1` [Example 5], with 48 nM; and `CN[C@@H]1CCN2CCN(c3c(NC(=O)c4csc(-c5ccnnc5)n4)ccc(OC4CC4)c3C(F)(F)F)C[C@@H]12` [Example 77], with 2 nM. Consider `N[C@@H]1CCN2CCN(c3c(NC(=O)c4csc(-c5ccnnc5)n4)ccc(Oc4ccccc4)c3C(F)(F)F)C[C@H]12` [Example 79], for which the IC50 is 47 nM.

As to `CNC[C@H]1CCCN1c1c(NC(=O)c2csc(-c3ccnnc3)n2)ccc(Oc2ccccc2)c1C(F)(F)F` [Example 37], the half-maximal inhibitory concentration (IC50) came out at 26 nM. Consider `CNC[C@@H]1CCCN(c2c(NC(=O)c3csc(-c4ccnnc4)n3)ccc(Oc3cccc(F)c3)c2C(F)(F)F)C1` [Example 51], for which the IC50 was found to be 16 nM. Turning to `NC[C@@H]1CCCN(c2c(NC(=O)c3csc(-c4ccnnc4)n3)ccc(Oc3ccccc3)c2C(F)(F)F)C1` [Example 84, N-{2-[(3S)-3-(aminomethyl)piperidin-1-yl]-4-phenoxy-3-(trifluoromethyl)phenyl}-2-(pyridazin-4-yl)-1,3-thiazole-4-carboxamide mono[(2E)-but-2-enedioate]], the half-maximal inhibitory concentration (IC50) was 6 nM.

For `CN(C)[C@@H]1CCN2CCN(c3c(NC(=O)c4csc(-c5ccnnc5)n4)ccc(OC4CC4)c3C(F)(F)F)C[C@@H]12` [Example 82], the IC50 stood at 3 nM.

The record behind these values is patent US12227517B2, “Pyridazinyl-thiazolecarboxamide compound” (Astellas Pharma Inc., priority 2019, dated 2025).
